Experiment: gradient 5% acetonitrile 3 min, to 50% in 2 min, to 85% in 15 min, held 3 min, 100 µL/min
Settings: column: Zorbax Extend-C18 2.1 x 50 mm; eluents: water / acetonitrile, 0.1% formic acid
In short: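 Values are retention times taken from adduct peaks that software picked and an analyst inspected. The pure standards were run as mixtures of ~100 molecules on HPLC linked to a quadrupole time-of-flight mass spectrometer, in positive and negative ionization mode. A Zorbax Extend-C18 column (2.1 × 50 mm, 1.8 μm) was used at 100 μL/min with water and acetonitrile, each including 0.1% formic acid.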

Work on `Cn1cc(S(=O)(=O)N2CCC(C(=O)Nc3cccc(F)c3)CC2)cc1C(=O)N1CCCC1` yielded an RP-LC retention time of 772 s.
With `CC1CCCCN1CCNC(=O)c1c2c(cn(-c3ccc(F)cc3)c1=O)C(=O)CC(C)(C)C2` (stereo not drawn) the RP-LC retention time was 675 s.
For `O=C(NC1CCCCC1)N1CC(F)(F)C[C@H]1CN1CCc2ccccc2C1`, the RP-LC retention time was 792 s.
`O=C(C1=CN(c2ccccc2F)c2cc(F)ccc2S1(=O)=O)N1CCOCC1` showed an RP-LC retention time of 740 s.
Compound `CN1C(=O)c2cc(C(=O)NCc3ccc(F)cc3)nn2CC1(C)C(=O)NC1CCCCCC1` (stereo not drawn) has an RP-LC retention time of 840 s.
Work on `COc1ccc(NC(=O)C2CC(=O)N(c3ccc4c(c3)CCN4C(=O)C3CC3)C2)c(C)c1` (stereo not drawn) yielded an RP-LC retention time of 740 s.
Work on `COc1cccc(CNC(=O)COc2cc(C)nc(N3CCN(c4ccccc4)CC3)n2)c1OC` yielded an RP-LC retention time of 783 s.
In the case of `Cc1ccccc1C(=O)CC1(O)C(=O)Nc2ccccc21` (stereo not drawn), the RP-LC retention time is reported as 709 s.
`CCc1nnsc1C(=O)Nc1ccc(S(=O)(=O)Nc2onc(C)c2C)cc1` gave an RP-LC retention time of 759 s.
In the case of `CC(=O)c1ccc(NS(=O)(=O)N2CCC(C)CC2)cc1`, the RP-LC retention time is reported as 780 s.
In the case of `CCCCN(CC)C(=O)c1cc2c(=O)n3ccccc3nc2n1C`, the RP-LC retention time is reported as 813 s.
For `Cc1ccc(S(=O)(=O)N(C)C)cc1-c1nnc(-c2ccccc2)o1`, the RP-LC retention time was 971 s.
Work on `CCCCN1CCC(F)(c2nc(-c3ccccc3)no2)CC1` yielded an RP-LC retention time of 691 s.
Compound `CCCCOc1ccc(-c2ccc(=O)n(Cc3nc(-c4ccccc4Br)no3)n2)cc1` has an RP-LC retention time of 1260 s.
Work on `COc1cc(C(=O)N2CCC3(CC2)N=C(c2ccc(Cl)cc2)C(=O)N3)cc(OC)c1OC` yielded an RP-LC retention time of 812 s.
`CCOc1ccc2cccc(NC(=O)C3CCN(S(C)(=O)=O)CC3)c2n1` showed an RP-LC retention time of 864 s.
`CCC(=O)N1CCC(N2CC(OCC3CC3)C23CCOCC3)CC1` (stereo not drawn) showed an RP-LC retention time of 577 s.
Work on `CCn1c(C(=O)NCc2ccccc2Cl)cc2sc(Cl)cc21` yielded an RP-LC retention time of 1190 s.
Work on `CN(C)c1ncncc1N1CCC(C(=O)NCCC2=CCCCC2)CC1` yielded an RP-LC retention time of 679 s.
With `COc1ccc(Cn2c(C)c(CNCc3ccco3)c(C(=O)O)c2C)cc1` the RP-LC retention time was 673 s.
In the case of `Cc1cc(-c2nnc(-c3ccc(F)cc3)o2)c(C)n1CC(=O)NCc1cccs1`, the RP-LC retention time is reported as 905 s.
`COc1cccc(-c2ccc3nc(N4CCC(C(N)=O)CC4)sc3n2)c1` showed an RP-LC retention time of 745 s.
`COc1ccc(-n2c(=O)n(C)c(=O)c3cc(C(=O)Nc4ccc(C)c(F)c4)cnc32)cc1` gave an RP-LC retention time of 965 s.
Compound `Cc1ccc(CS(=O)(=O)N[C@@H]2CN(c3ncccn3)C[C@H]2CN(C)C)cc1` has an RP-LC retention time of 619 s.
Compound `CCCS(=O)(=O)N1CCC(F)(F)C(COCc2cccnc2)C1` (stereo not drawn) has an RP-LC retention time of 656 s.
Work on `Cc1nc(C)c(C(=O)N2CCCCCCNC(=O)[C@@H]3CCCC[C@@H]32)s1` yielded an RP-LC retention time of 727 s.
`O=c1n(Cc2ccc(Cl)cc2)nc2ccc(S(=O)(=O)N3CCOCC3)cn12` gave an RP-LC retention time of 676 s.
Compound `CCCNC(=O)N(CC(=O)N1CCc2sccc2C1COc1ccccc1)CC1CCCO1` (stereo not drawn) has an RP-LC retention time of 911 s.
In the case of `O=C(NC1CCN(c2cc(-c3cccnc3)[nH]n2)CC1)C1CCCCC1`, the RP-LC retention time is reported as 573 s.
Compound `Cn1cc(CCN2CCC(C(=O)NCc3ccccc3Cl)CC2)c2cccnc21` has an RP-LC retention time of 617 s.
With `Cc1cccc(-c2c3c(=O)n(C)c(=O)n(C)c3c3n2CCOC3c2ccco2)c1` (stereo not drawn) the RP-LC retention time was 934 s.
With `C=CCN1C(=O)COc2ccc(-c3csc(NC(=O)C(C)C)n3)cc21` the RP-LC retention time was 895 s.
`CCNC(=O)C1CCN(C(=O)Nc2ccc(NC(=O)Nc3ccccc3F)cc2)CC1` showed an RP-LC retention time of 686 s.
With `Cc1ccc(C2=NC3(CCN(C(=O)Nc4cccc(C)c4)CC3)NC2=O)cc1` the RP-LC retention time was 851 s.
Work on `C[C@H]1C[C@H]2[C@@H]3CCC4=CC(=O)C=C[C@]4(C)[C@H]3C(=O)C[C@]2(C)[C@@]1(O)C(=O)CO` yielded an RP-LC retention time of 775 s.
Compound `CCOc1ccc(CC(=O)N2C[C@@H]3C[C@H](NC(=O)c4cccnc4)[C@H]2C3)cc1` has an RP-LC retention time of 645 s.
In the case of `O=S(=O)(c1ccc2nc(N3CCN(c4cccc(Cl)c4)CC3)ccc2c1)N1CCCCC1`, the RP-LC retention time is reported as 1240 s.
In the case of `Cc1[nH]c(=O)[nH]c(=O)c1CC(=O)Nc1cccc(NS(C)(=O)=O)c1`, the RP-LC retention time is reported as 549 s.
For `COc1ccc(N2CCN(c3cc(SCC(=O)Nc4ccc(Cl)cc4F)ncn3)CC2)cc1`, the RP-LC retention time was 1090 s.
`Cc1nc(C(=O)Nc2cccc(F)c2)c(C)n1C1CCN(S(C)(=O)=O)CC1` showed an RP-LC retention time of 706 s.
Work on `COc1cccc(-c2noc(Cn3nc(-c4ccccc4)ccc3=O)n2)c1` yielded an RP-LC retention time of 998 s.
`Cc1ccccc1NC(=O)C1CCCN(c2ncnc3c2nc2n3CCCCC2)C1` (stereo not drawn) gave an RP-LC retention time of 766 s.
In the case of `CCNC(=O)C1CCCN(c2nc3ncn(CC(=O)Nc4cccc(Cl)c4)c(=O)c3s2)C1` (stereo not drawn), the RP-LC retention time is reported as 701 s.
Work on `CCOc1ccc(NS(=O)(=O)c2cc(C(=O)Nc3ccc(C)c(C)c3)n[nH]2)cc1` yielded an RP-LC retention time of 902 s.
Compound `Cc1ccc2oc(-c3nnc(C(=O)NCCN4CCC(C)CC4)o3)c(C)c2c1` has an RP-LC retention time of 674 s.
`CN1CCC(Nc2ncc3ncnc(Nc4ccc(F)c(Cl)c4)c3n2)CC1` gave an RP-LC retention time of 710 s.
In the case of `O=C(O)c1nnn(-c2ccc3c(c2)CCC3)c1-c1cccnc1`, the RP-LC retention time is reported as 711 s.
Work on `Cn1cc(CC(=O)N2CCN(S(=O)(=O)C3CC3)CC2)c2ccccc21` yielded an RP-LC retention time of 577 s.
`O=c1n(Cc2ccccc2)nc2n1CCN(S(=O)(=O)c1ccccc1)CC2` gave an RP-LC retention time of 793 s.
Work on `Cn1nc(N2CCC(NC(=O)c3ccsc3)C2)ccc1=O` (stereo not drawn) yielded an RP-LC retention time of 640 s.
`CCn1cc(S(=O)(=O)N2CC(Cn3c(C)cnc3-c3cccnc3)C2)cn1` showed an RP-LC retention time of 576 s.
In the case of `O=C(c1nnc(-c2ccc(S(=O)(=O)N3CCOCC3)cc2)o1)N1CCC(Cc2ccccc2)CC1`, the RP-LC retention time is reported as 1080 s.
`O=C(Nc1ccc2c(c1)N(S(=O)(=O)c1ccc(F)cc1)CCC2)C1CC1` gave an RP-LC retention time of 852 s.
Work on `Cc1nnc(N2CCCC(C(=O)NC(C)c3ccccc3)C2)c2nn(-c3ccc(Cl)cc3)c(C)c12` (stereo not drawn) yielded an RP-LC retention time of 795 s.
In the case of `CCc1nc(N)n(CC(=O)NCc2ccc(F)cc2)c(=O)c1C`, the RP-LC retention time is reported as 634 s.
`CCOC(=O)c1cc2c([nH]c1=O)CC(c1ccccc1)CC2=O` (stereo not drawn) showed an RP-LC retention time of 735 s.
In the case of `CCC(=O)N1CCc2cc(N3CC(C(=O)NC(C)C)CC3=O)ccc21` (stereo not drawn), the RP-LC retention time is reported as 647 s.
`CCCN1C(=O)COc2ccc(-c3noc(-c4cc(OC)cc(OC)c4)n3)cc21` gave an RP-LC retention time of 1240 s.
With `O=S(=O)(c1ccc(F)cc1)N1CCN(c2cnn3cnnc3c2)CC1` the RP-LC retention time was 653 s.
In the case of `Cc1ccccc1Cc1nc(-c2cccc(-c3ccn[nH]3)c2)no1`, the RP-LC retention time is reported as 985 s.
For `CN(C)C(=O)c1ccc2c(c1)nc(CN(C)C(=O)Nc1ccccc1Cl)n2C`, the RP-LC retention time was 611 s.
Work on `COc1ccc(NC(=O)Cn2ccc3c(=O)n(C)c(=O)n(C)c32)c(OC)c1` yielded an RP-LC retention time of 665 s.
In the case of `COc1cccc(-c2noc(Cn3nc(-c4ccc5c(c4)OCO5)ccc3=O)n2)c1`, the RP-LC retention time is reported as 957 s.
For `O=C(NCc1ccc2c(c1)OCO2)C(=O)NCC1CCCO1` (stereo not drawn), the RP-LC retention time was 639 s.
`Cc1cc(NC(=O)COc2coc(CN3CCN(C(=O)c4ccco4)CC3)cc2=O)no1` showed an RP-LC retention time of 549 s.
Compound `Cc1ccccc1-n1c(=O)c2sccc2n(Cc2nc(-c3cccc(C(F)(F)F)c3)no2)c1=O` has an RP-LC retention time of 1100 s.
`Cc1nn(C)cc1CN1CCCCC1CCn1cc(-c2ccccc2)nn1` (stereo not drawn) showed an RP-LC retention time of 564 s.
With `O=C(c1cnn2cccnc12)N1CCCC1c1ccc(Cl)cc1` (stereo not drawn) the RP-LC retention time was 766 s.
`O=C(CSc1nc2ncccc2[nH]1)Nc1ccccc1C(F)(F)F` gave an RP-LC retention time of 649 s.
In the case of `COc1cc(NC(=O)Cn2c(=O)n(-c3ccccc3)c(=O)c3c2cc(C)n3C)cc(OC)c1`, the RP-LC retention time is reported as 804 s.
In the case of `Cc1ccn2cc(-c3ccc(NC(=O)C(C)(C)C)cc3)nc2n1`, the RP-LC retention time is reported as 616 s.
Work on `Cn1c(=O)c(N2CCCC(C(=O)NCCc3c[nH]c4ccc(Cl)cc34)C2)nc2ccccc21` (stereo not drawn) yielded an RP-LC retention time of 960 s.
Work on `CCc1csc(-c2cn(CC(=O)NCc3cccc(C(F)(F)F)c3)cn2)n1` yielded an RP-LC retention time of 768 s.
In the case of `COc1ccc(N2CC(c3noc(-c4ccc5c(c4)OCO5)n3)CC2=O)cc1` (stereo not drawn), the RP-LC retention time is reported as 874 s.
For `COc1ccc(OCc2nc(-c3ccc4ncn(C(C)C)c4c3)no2)cc1`, the RP-LC retention time was 727 s.
`Cc1cc(C)n(-c2ccnc(N3CCC(C(=O)NCc4ccccn4)CC3)n2)n1` showed an RP-LC retention time of 610 s.
For `O=C(C1CCN(c2ccc(-n3cccn3)nn2)CC1)N1CCN(c2ncccn2)CC1`, the RP-LC retention time was 605 s.
Compound `Cn1c(CNC(=O)CSc2nnc(-c3ccc4c(c3)OCO4)o2)nc2ccccc21` has an RP-LC retention time of 1020 s.
In the case of `CC(C)COc1cc(=O)n2c(c1C(=O)NCC1CC1)CCCCC2`, the RP-LC retention time is reported as 708 s.
In the case of `Cn1nc(C(=O)N2CCCC2)c2c1CCN(C(=O)Nc1cc(F)ccc1F)C2`, the RP-LC retention time is reported as 728 s.
`O=c1oc2cc(O)ccc2s1` showed an RP-LC retention time of 771 s.
`CCOC(=O)c1nc(Nc2cccc(SC)c2)c2ccccc2n1` showed an RP-LC retention time of 940 s.
In the case of `COc1nc2ccccc2nc1N1CCCC(C(=O)N2CCCC2)C1` (stereo not drawn), the RP-LC retention time is reported as 856 s.
`COC(=O)c1ccc(C(=O)NCCCC(=O)Nc2cccc3cccnc23)cc1` showed an RP-LC retention time of 731 s.
With `CC1CCN(C(=O)c2cn(-c3cc(-c4nc(C(C)(C)C)no4)ccn3)cn2)CC1` the RP-LC retention time was 1060 s.
Compound `COC(=O)c1ccc2c(=O)n(CCc3ccccc3)c(N3CCC(C(N)=O)CC3)nc2c1` has an RP-LC retention time of 774 s.
For `Cc1ccc(N2CC(C(=O)N3CCC(NS(=O)(=O)c4ccc(C)cc4)CC3)CC2=O)cc1` (stereo not drawn), the RP-LC retention time was 826 s.
Work on `CCOC(=O)c1noc2ncnc(Nc3cc(Cl)ccc3OC)c12` yielded an RP-LC retention time of 1080 s.
